{"source": "patent US20130225694A1", "about": "“COMPOSITIONS AND METHODS OF INHIBITING RETINAL DEGENERATION” (Oklahoma Medical Research Foundation, priority 2012, published 2013)", "key": {"[1]": {"test_system": "mouse retina", "assay": "Light-damage protection by topical PBN eye drops in mice (ERG)", "assay_type": "in vivo", "settings": "10% PBN eye drop in V1 or V2; 3,000 lux 6 h; ERG five days after", "procedure": "After topical application of PBN, light-damage was done at 3,000 lux for 6 h. ERG response were recorded five days after light-damage. Two vehicles were used to solubilize and make 10% PBN eye drop formulation for topical application on mouse eye, vehicle 1 (V-1) and vehicle 2 (V-2).\nAfter topical application of PBN, light-damage was done at 3,000 lux for 6 h. ERG responses were recorded five days after light-damage. Two vehicles were used to solubilize and make the 10% PBN eye drop formulation for topical application on mouse eyes, vehicle 1 (V-1) and vehicle 2 (V-2). […] Vehicle 1 contains 10 mM potassium borate/bicarbonate buffer (pH 7.2), glycerine, 1.0%, carboxymethylcellulose 0.3%, benzyl alcohol 0.3%, and 30% 1-methyl-2-pyrrolidinone (a solubilizing enhancer, a.k.a., N-Methyl-2-Pyrrolidone—“NMP”). Vehicle 2 contains 137 mM sodium chloride, 2.7 mM potassium chloride in 10 mM phosphate buffer (pH 7.4), and 30% 1-methyl-2-pyrrolidinone."}, "[2]": {"test_system": "cone photoreceptors", "assay": "Cone function by single-flash photopic and flicker-flash ERG in rats", "assay_type": "in vivo, rat", "settings": "50 mg/kg, 60 minutes after administration, rod-suppressing background", "procedure": "To evaluate cone function under conditions in which rod recovery is suppressed, rats were injected with PBN (50 mg/kg) or saline 60 minutes prior to recording single-flash photopic and flicker-flash ERG recordings. Rats were placed under a steady adapting field of 1.7 log cd·s/m^2 for at least 7 minutes. A single flash of 3.3 log cd·s/m^2 was presented under the same adapting field to elicit a maximal cone response. Cone responses were further evaluated by presenting 1.2 log cd·s/m^2 stimuli flickering at frequencies of 3-, 10-, 20-, and 30-Hz under the same adapting field.\nTo assess the effect of PBN administration on cone function under conditions when rod recovery was suppressed, single- and flicker-flash ERG recordings were performed under a steady, rod-suppressing background illumination 60 minutes after PBN administration."}, "[3]": {"test_system": "rod photoreceptors", "assay": "Recovery of rod photoresponses after bleaching (dark adaptation ERG) in rats", "assay_type": "in vivo, rat", "settings": "50 mg/kg IP", "procedure": "Possible defects in the visual cycle were analyzed by measuring the time course of dark adaptation (recovery of rod photoreceptor sensitivity) following a bleaching light exposure. Rats were fully dark-adapted and injected intraperitoneally with PBN (50 mg/kg) or saline. Full-field scotopic ERGs for both eyes were recorded after 3 hours of PBN injection. A single test flash of 2.3 log cd·s/m^2 was presented to elicit the rod a-wave response under fully dark-adapted conditions. Rats were then exposed to a steady field of log 2.3 cd·s/m^2 for 2 minutes in the Ganzfeld dome to bleach rod photoreceptors. Immediately following the bleaching period (time=0 minutes) and every 10 minutes thereafter (time=10, 20, 30, 40, 50, and 60 minutes), the same test flash of 2.3 log cd·s/m^2 was presented. The a-wave responses at the indicated times after bleaching were normalized to the initial dark-adapted response for each rat.\nEffect of PBN on the rate of recovery of rod photoresponses: dark adaptation ERG—The damaging effect of bright light requires a functional rhodopsin photopigment (23). It is well established that PBN protects against light damage (1), and the inventors previously speculated that PBN, as part of its protective mechanism, might down-regulate rhodopsin regeneration rate (2). […]"}, "[4]": {"test_system": "rhodopsin", "assay": "Rhodopsin regeneration after bleach in rats, IP nitrone", "assay_type": "in vivo, rat", "procedure": "FIG. 10 graphically illustrates the effects of three PBN analogs of rhodopsin regeneration. Rhodopsin content was measured as nmole/retina following the procedure as in Mandal et al. (J Biol. Chem. 2011. 286 (37):32491-501). After injection with PBN derivatives or vehicles (saline), rats were left in room light for 2 hours (light adapted or LA) and then moved to dark. At 2.5 hours dark adaptation (DA), retinas were harvested. DA-Control, Dark adapted (12 h) control retina without any treatment to show normal rhodopsin content.\nMeasurement of rhodopsin regeneration—To measure the effect of PBN on the rate of rhodopsin regeneration, dark-adapted rats were injected intraperitoneally with PBN (50 mg/kg) or PBS 0.5 hour prior to a 2 hour bleach in room light (˜400 lux). Immediately following the bleach (time=0 minutes), a group of PBN- and vehicle-treated rats were killed, and retinas were removed and snap frozen. The remaining rats were dark-adapted, and retinas were collected under dim red light at 45, 90, and 180 minutes after the bleach.\nRhodopsin measurements were performed as described previously (2,36) with slight modification. Briefly, under dim red light, each retina was homogenized in 450 μl of buffer containing 10 mM Tris-HCl (pH 7.4), 150 mM NaCl, 1 mM EDTA, 2% (w/v) octylglucoside, and 50 mM hydroxylamine. Homogenates were centrifuged at 16,000 g, and soluble lysates were scanned from 270-800 nm in a spectrophotometer (Ultrospec 3000 UV/Vis Spectrophotometer, GE Healthcare, Piscataway, N.J.). Samples were then bleached under room light for 10 minutes and scanned again. The difference spectra at 500 nm between pre- and post-bleached samples were used to determine rhodopsin content using a molar extinction coefficient of […] (37). The values were normalized to the total lysate volume, and data are presented as rhodopsin content/retina."}}}
{"smiles": "CC(C)(C)/[N+]([O-])=C/c1ccccc1", "note": "[Compound 1, α-phenyl-N-tert-butyl nitrone]", "values": [{"measurement": "rod function (scotopic A-wave) after light-damage", "setting": "[1]", "value": "significant restoration of rod function"}, {"measurement": "effect on cone function", "setting": "[2]", "value": "not affected"}, {"measurement": "fully dark-adapted a-wave response", "setting": "[3]; 2.3 log cd·s/m^2 test flash before bleach, n=4", "value": "−441.5±70.66", "unit": "μV"}, {"measurement": "recovery of the initial fully dark-adapted rod response", "setting": "[3]; 40 minutes after the bleaching illumination", "value": 25, "unit": "%"}, {"measurement": "effect on rhodopsin regeneration", "setting": "[4]; 50 mg/kg IP, 2.5 hours in the dark (FIG. 10)", "value": "blocked rhodopsin regeneration significantly"}, {"measurement": "rhodopsin regenerated after bleach", "setting": "[4]; 50 mg/kg IP, 45 minutes in darkness after 2 h bleach", "value": "virtually no rhodopsin was regenerated"}, {"measurement": "bleachable rhodopsin recovered", "setting": "[4]; 50 mg/kg IP, dark adaptation for 3 hours after 2 h bleach", "value": "~30", "unit": "%"}, {"measurement": "inhibition at 50 mg/kg", "setting": "[4]; Rattus norvegicus, rats, 50 mg/kg IP, 2 h room light then 2.5 h dark adaptation", "value": 83, "unit": "%"}, {"measurement": "rhodopsin content of rats maintained in darkness", "setting": "[4]; fully dark-adapted rats, mean±SEM", "value": "1.38±0.14", "unit": "nmol/eye"}]}
